According to patent US20210002282A1 (DR. REDDY'S LABORATORIES LIMITED, priority 2018, published 2021):
Read-outs that look alike come from different tables or passages of the source.

Key:
[1] = Hygroscopicity of solid forms (statement only); assay type: physicochemical
[2] = 25° C. ± 2° C. 60% RH ± 5RH, 1 Month
[3] = 25° C. ± 2° C. 60% RH ± 5RH, 3 Months
[4] = 25° C. ± 2° C. 60% RH ± 5RH, Initial
[5] = 40° C. ± 2° C. 75% RH ± 5RH, 1 Month
[6] = 40° C. ± 2° C. 75% RH ± 5RH, 3 Months
[7] = 40° C. ± 2° C. 75% RH ± 5RH, Initial

| SMILES | % Total Impurities [2] | % Water content [2] | Description [2] | % Total Impurities [3] | % Water content [3] | Description [3] | % Total Impurities [4] | % Water content [4] | Description [4] | PXRD [4] | % Total Impurities [5] | % Water content [5] | Description [5] | % Total Impurities [6] | % Water content [6] | Description [6] | % Total Impurities [7] | % Water content [7] | Description [7] | PXRD [7] | also measured |
| --- | --- | --- | --- | --- | --- | --- | --- | --- | --- | --- | --- | --- | --- | --- | --- | --- | --- | --- | --- | --- | --- |
| C=CC(=O)N1CCC[C@@H](n2nc(-c3ccc(Oc4ccccc4)cc3)c3c(N)ncnc32)C1 [Form D19, Ibrutinib] | 0.42% | 0.20% | Off-White | 0.42% | 0.09% | Off-White | 0.41% | 0.19% | Off-White | Crystalline | 0.49% | 0.13% | Off-White | 0.50% | 0.11% | Off-White | 0.41% | 0.19% | Off-White | Crystalline | Hexanoic acid content (%) [2]: 21.73%; Hexanoic acid content (%) [3]: 21.24%; Hexanoic acid content (%) [4]: 23.13%; Hexanoic acid content (%) [5]: 21.48%; Hexanoic acid content (%) [6]: 20.79%; Hexanoic acid content (%) [7]: 23.13%; hygroscopicity [1]: non-hygroscopic |
| C=CC(=O)N1CCC[C@@H](n2nc(-c3ccc(Oc4ccccc4)cc3)c3c(N)ncnc32)C1 [Form D18, Ibrutinib] | 0.46% | 0.10% | White | 0.39% | 0.19% | White | 0.38% | 0.13% | White | Crystalline | 0.45% | 0.16% | White | 0.45% | 0.29% | White | 0.38% | 0.13% | White | Crystalline | Octanoic acid content (%) [2]: 24.70%; Octanoic acid content (%) [3]: 25.57%; Octanoic acid content (%) [4]: 25.24%; Octanoic acid content (%) [5]: 24.70%; Octanoic acid content (%) [6]: 24.99%; Octanoic acid content (%) [7]: 25.24%; hygroscopicity [1]: non-hygroscopic |
